Experimental data from US6903135B2, “Methods and products related to 16-HETE analogs” (Board of Regents, The University of Texas System, priority 1998, dated 2005).
Marks after values point to notes of the source that are not given here.

Tests used:
Assay type in all cases: cell-based
[1] = system: neutrophils in diluted human blood; assay: fMLP-induced neutrophil aggregation in diluted human blood; details: for Aggregation (percent of inhibition from HETE untreated cells): 1 µM compound, N = 4; for inhibition of neutrophil aggregation: no concentration given
Method: (§1) Stimulated neutrophil aggregation and oxygen free radical release were examined in whole human blood using a whole-blood aggregometer-chemiluminometer (Chronolog, Haverton, Pa.) as described in Bednar et al. J. Thromb. Thrombol. 1, 179-185 (1995). Briefly, blood samples containing heparin (1 U/ml) as the anticoagulant were diluted in HBSS in proportion 1 to 9. Diluted blood aliquots (1 ml) were stirred (400 rpm) in a prewarmed (37° C.) siliconized cuvette containing cytochalasin b (5 μg/ml) and luminol (in 8 μl DMSO, 500 μM final concentration) and the test HETE (concentration 0.01 to 10 μM) for 10 min. Neutrophils were stimulated with a submaximal dose of fMLP (5×10^−7M final concentration). The aggregation and chemiluminescence were simultaneously measured as changes of impedance and luminescence, respectively. The fMLP-induced chemiluminescence was calculated as the peak height of the reaction.
The methods were performed as described above in Example 3.

[2] = system: LTB4 synthesis in neutrophils; assay: Neutrophil LTB4 production stimulated by fMLP; details: 1 μM, 10 min preincubation, fMLP 5×10^−7 M; fMLP alone 92.8±27.1, unstimulated 49.9±24.2; n=4
Method: 16(R)-HETE (0.01-1.0 μM) was preincubated for 10 minutes with the neutrophil suspension (3×10^6/ml) prior to the addition of formyl-methionyl-leucyl-phenylalanine (fMLP). Samples were then incubated for an additional 10 minutes with 5×10^−7M fMLP. All incubations took place at 37° C. Plasma samples for the measurement of LTB4 were collected by centrifugation of the whole blood samples at 1200 rpm for 15 minutes. Samples were stored at […] until analyzed. The plasma was then acidified to pH3 with 1M Hcl. The plasma was then placed on C2 reverse phase columns (Amprep for Amersham Corp., Arlington Heights, Ill.) to extract LTB4. LTB4 was then measured using the Biotrak LTB4 enzyme immunoassay system (Amersham Corp., Arlington Heights, Ill.). All standards and samples were performed in duplicate. Following incubation, all samples were read at 450 nm and the LTB4 concentration in each sample was determined following the generation of a standard curve. LTB4 concentration was expressed as picograms LTB4 per 1000 neutrophils.

[3] = system: neutrophils in diluted human blood; assay: fMLP-stimulated oxygen free radical release (luminol chemiluminescence) in diluted human blood; details: for OFR Release (percent of inhibition from HETE untreated cells): 1 mM [sic] HETE, fMLP 5×10^−7 M, chemiluminescence, N = 3 to 4
Method: as §1, with “Diluted blood aliquots (1 ml) were stirred (400 rpm) in a prewarmed (37° C.) siliconized cuvette containing cytochalasin b (5 μg/ml) and luminol (in 8 μl DMSO, 500 μM final concentration) and the test HETE (concentration 0.01 to 10 μM) for 10 min.” left out

[4] = system: thrombin-stimulated human neutrophils; assay: Thrombin-stimulated neutrophil adhesion to gelatin matrix
Method: (§2) Venous blood (60-70 ml) was collected from four healthy, normal volunteers into syringes containing heparin (1 U/ml). Polymorphonuclear leukocytes (PMNs) were isolated by a histopaque density gradient technique as previously described in Liu et al., Adhesion, Its role in Inflammatory Disease, Freeman and Co., New York, 1992, pp 189-192. Briefly, blood aliquots (6 ml) were layered over two layers (3 ml) of histopaque 1077 and 1119 in a conical centrifuge tube. The sample was then subjected to centrifugation at 100×g for 30 minutes at room temperature and the top layer, containing the neutrophils, was carefully collected. Hypotonic lysis was used to separate out the red blood cells. The neutrophils were then isolated from the sample by centrifugation (2000×g) and suspended in Hanks balanced salt solution (HBSS) containing 1 mM Ca^+ and 0.8 mM Mg^+ for studies involving arachidonic acid metabolism, and in M199 (with 1% BSA) for neutrophil adhesion assays. Total cells were counted using a hemocytometer and leukocytes were counted after staining with Wright-Giemsa stain. For each experiment, the cell preparations used contain ≧97% neutrophils, having ≧95% viability as determined by a trypan blue exclusion assay.
Isolated neutrophils were resuspended in M199 containing 1% BSA with a final concentration of 3×10^6 cells per ml. Cells suspensions (1 ml) were incubated with or without a test compound, 16(S)-HETE, 16(R)-HETE, or 20-HETE (concentrations 0.01 to 10 μM) for 10 min and then placed into gelatin-coated wells and further incubated for 20 min at 37° C. The wells were washed three times with 0.5 ml of solution M199 to remove non-adherent cells. The adherent cells were then removed by addition of 0.4 ml of 0.25% trypsin-EDTA in 0.1 M PBS to the gelatin-coated wells and incubation for 10 min at 37° C. The incubates were transferred and the wells were washed with 0.1 ml of M199 solution. The amount of cells in combined solutions was counted. […] The inhibition of adhesion was expressed as percent of cells remaining in suspension (non-adherent) relative to control. […]

basal human neutrophils = assay: Basal neutrophil adhesion to gelatin matrix
Method: as §2
Isolated neutrophils were resuspended in M199 containing 1% BSA with a final concentration of 3×10^6 cells per ml. Cells suspensions (1 ml) were incubated with or without a test compound, 16(S)-HETE, 16(R)-HETE, or 20-HETE (concentrations 0.01 to 10 μM) for 10 min and then placed into gelatin-coated wells and further incubated for 20 min at 37° C. The wells were washed three times with 0.5 ml of solution M199 to remove non-adherent cells. The adherent cells were then removed by addition of 0.4 ml of 0.25% trypsin-EDTA in 0.1 M PBS to the gelatin-coated wells and incubation for 10 min at 37° C. The incubates were transferred and the wells were washed with 0.1 ml of M199 solution. The amount of cells in combined solutions was counted. In some experiments, the adhesion of neutrophils was stimulated by addition of 1 U/ml of thrombin to neutrophil suspension immediately prior to the transfer of cells to the wells. Experiments were performed in duplicates for each concentration of HETE. The inhibition of adhesion was expressed as percent of cells remaining in suspension (non-adherent) relative to control. The range of adherent PMNs in control incubations was 6 to 23%. This was increased two-fold in the presence of thrombin.

platelets [5] = assay: ATP release from ADP-stimulated platelets; details: 1 μM, ADP 5 μM, n=3, mean±sem
Description: (§3) Platelet aggregation was examined in diluted whole blood using a Chronolog whole blood aggregometer (Havertown, Pa.) as previously described (Bednar, M. M.; Dooley, R. H.; Zamani, M.; Howard, D. B.; and Gross, C. E. Neutrophil and platelet activity and quantification following delayed t-PA therapy in a rabbit model of thromboembolic stroke. J. Thromb. Thrombol. 1:179-185 (1995). Briefly, whole blood was collected in 3.8% sodium citrate (9:1, v/v) and was subsequently diluted 50:50 with normal saline. Aggregation was assessed over a 6 minute interval following addition of a submaximal concentration of adenosine diphosphate (ADP, 5 μM: Sigma Corporation, St. Louis, Mo.). Aggregation was then repeated following a ten minute incubation with either 1 μM or 16(R)-HETE or 16(S)-HETE and expressed as the change in impedance as a percentage of the baseline value. Adenosine triphosphate (ATP) release was simultaneously measured from ADP-stimulated platelets in the Chronolog whole blood aggregometer using the Chrono-Lume luminescent agent (firefly luciferin-luciferase). Samples were compared to chemiluminescence obtained from ATP standards following the addition of luciferin-luciferase.

platelets [6] = assay: ADP-induced platelet aggregation in diluted whole blood; details: 1 μM, ten minute incubation, ADP 5 μM, n=3, mean±sem
Description: as §3

[7] = system: neutrophils in diluted human blood; assay: fMLP-induced neutrophil aggregation in diluted human blood; details: 1 mM [sic] HETE, fMLP 5×10^−7 M, N = 3 to 4
human neutrophils = assay: Agonist activity on human neutrophils; details: concentrations ≦20 μM
[8] = concentrations of one micromolar, four observations per compound

## 5,6,14,15-Dehydro-8,9,11,12-tetrahydro-16(R)-HETE
[1]
  Aggregation (percent of inhibition from HETE untreated cells): 79.4 +/− 12.2%

## CCCC[C@@H](O)CCCCCCCCCCCCCCC(=O)O [5,6,8,9,11,12,14,15-octahydro-16(R)-HETE]
[1]
  Aggregation (percent of inhibition from HETE untreated cells): 122.8 +/− 15.4%

## CCCC[C@@H](O)/C=C\CCCCCCC/C=C\CCCC(=O)O [8,9,11,12-tetrahydro-16(R)-HETE]
[1]
  Aggregation (percent of inhibition from HETE untreated cells): 71.1 +/− 10.3* percent

## CCCCC[C@H](O)/C=C/C=C\C/C=C\C/C=C\CCCC(=O)O [15-HETE]
[1]
  inhibition of neutrophil aggregation: neither 20-HETE nor 15-HETE inhibited

## CCCCC(O)/C=C\C/C=C\C/C=C\C/C=C\CCCC(=O)NS(C)(=O)=O [16(R)-HETE sulfonimide, N-methylsulfonyl-16-hydroxyeicosa-5,8,11,14-(Z)-tetraenamide]
[1]
  Aggregation (percent of inhibition from HETE untreated cells): 47.6 +/− 20.5* percent
[1]; [8]
  inhibition of fMLP-induced neutrophil aggregation: slightly lower activity than 16-HETE (R)

## CCCC[C@@H](O)C=CCC=CCC=CCC=CCCCC(=O)O [16(R)-HETE, 16(R)-hydroxy-5,8,11,14-eicosatetraenoic acid]
[2]
  LTB4 synthesis: 17.0±3.2 pg/1000 neutrophils
[3]
  OFR Release (percent of inhibition from HETE untreated cells): 8.9 ± 5.1%
[4]; Homo sapiens, Neutrophil, 1 μM, thrombin 1 U/ml, 3×10^6 cells/ml
  inhibition at 1 µM: 50 ± 4%
Basal human neutrophils; Homo sapiens, Neutrophil, 1 μM, 10 min preincubation, unstimulated neutrophils, gelatin matrix
  inhibition at 1 µM: 73 ± 11%
Basal human neutrophils; preincubation with 10 μM
  inhibition of neutrophil adhesion to gelatin: completely inhibited
Platelets [5]
  ATP release from ADP-stimulated platelets, % of the control sample: 99.3±0.7%
Platelets [6]
  ADP-induced platelet aggregation, % of the control value: 85.9±21.4%
[1]
  Aggregation (percent of inhibition from HETE untreated cells): 42.0 ± 11.0%
[1]; Homo sapiens, Neutrophil, fMLP 5×10^−7 M, read-out: IC50, inhibition of fMLP-induced neutrophil aggregation
  IC50: 1200 nM
[1]; [8]
  inhibition of fMLP-induced neutrophil aggregation: inhibited
[7]
  Aggregation (percent of inhibition from HETE untreated cells): 42.0 ± 11.0%

## CCCC[C@H](O)/C=C\C/C=C\C/C=C\C/C=C\CCCC(=O)O [16(S)-HETE]
[3]
  OFR Release (percent of inhibition from HETE untreated cells): 5.6 ± 16.7%
[4]; 1 μM, thrombin 1 U/ml, 3×10^6 cells/ml
  inhibition of thrombin-stimulated neutrophil adhesion: 40±14%
Basal human neutrophils; 1 μM, 10 min preincubation, unstimulated neutrophils, gelatin matrix
  inhibition of basal neutrophil adhesion: 39±8%
Platelets [5]
  ATP release from ADP-stimulated platelets, % of the control sample: 108.0±6.8%
Platelets [6]
  ADP-induced platelet aggregation, % of the control value: 101.3±14.0%
[1]; concentrations of ≦10 μM
  inhibition of fMLP-induced neutrophil aggregation: not active
[7]
  Aggregation (percent of inhibition from HETE untreated cells): 7.0 ± 3.5%

## O=C(O)CCC/C=C\C/C=C\C/C=C\C/C=C\CCCCCO [20-HETE]
[3]
  OFR Release (percent of inhibition from HETE untreated cells): 3.9 ± 13.4%
[3]; concentrations up to 1 μM
  activity in assay of luminol chemiluminescence: no activity
[4]; concentrations ≦10 μM
  inhibition of neutrophil adhesion, stimulated conditions: did not inhibit
Basal human neutrophils; concentrations up to 1 μM
  activity in assay of neutrophil adhesion: no activity
Basal human neutrophils; concentrations ≦10 μM
  inhibition of neutrophil adhesion, basal conditions: did not inhibit
Human neutrophils
  agonist activity on human neutrophils: no detectable agonist activity
[1]; concentrations of ≦10 μM
  inhibition of fMLP-induced neutrophil aggregation: not active
[1]; concentrations up to 1 μM
  activity in assay of neutrophil aggregation: no activity
[1]
  inhibition of neutrophil aggregation: neither 20-HETE nor 15-HETE inhibited
[7]
  Aggregation (percent of inhibition from HETE untreated cells): 8.1 ± 2.6%

## C(1)-hydroxyl 16-HETE
[1]
  Aggregation (percent of inhibition from HETE untreated cells): 84.6 +/− 11.4%
